Results: US7468391B2, “Methods for treating retinoid responsive disorders using selective inhibitors of CYP26A and CYP26B” (Allergan, Inc., priority 2003, dated 2008)
Several values for one entry are separate records, joined by “and”; a condition that tells them apart may be missing. Equal values may be shown once. Entries after “also recorded” stand apart in the source; their conditions may differ. Read-outs that look alike come from different tables or passages of the source.

Experiments:
human patients = settings: Kuijpers, et al. (1998); cited from earlier work
[1] = tested on: hamster flank organ sebaceous gland; experiment: Hamster flank organ sebaceous gland differentiation (model for acne); type: in vivo, male golden syrian hamsters; settings: for sebaceous gland differentiation in hamster flank organ: oral gavage, 6 days/week for 4 weeks
Experimental: Differentiation of hamster flank organ sebaceous gland is a model system for development of acne. To determine the effectiveness of selective CYP26B inhibitors for treating acne, such inhibitors were tested in this model system. To confirm that this model system can predict the effectiveness of a compound in reducing acne, 13-cis retinoic acid (acutane) was used as a positive control.
(§1) For the hamster model system, male golden syrian hamsters were fed LabDiet#5002 rodent diet and housed individually on a 14/10 hr light/dark cycle. For treatment, the animals were randomized according to body weight and they were also weighed at each treatment so that the drug doses could be adjusted accordingly. The animals were treated daily by oral gavage, 6 days/week for 4 weeks. At the end of treatments, the animals were sacrificed by carbon dioxide inhalation. The flank organs were then excised and spread on a small piece of index card which was placed in a histology cassette for fixation in 10% buffered formaldehyde. The specimen was divided into 5 equally spaced portions to make paraffin blocks and one 5-micrometer H&E sections was prepared from each block. The two sections that contained the most sebaceous glands were used to determine the average acini area of the flank organ. A video camera attached to a standard microscope with the 4× objective was used to capture the images of the sebaceous glands. Computer programs Videoshop and NIH Image 1.63 were used to quantify the acini areas. All the recognizable sebaceous glands in the two sections were analyzed and the means were derived for comparison among various treatments. In all studies, blood samples were also collected for determining the levels of serum triglyceride using a triglyceride GPO Trinder kit from Sigma Chemicals (St. Louis, Mo.).

[2] = type: in vivo
Experimental: as §1
Experimental results showing the effect of various retinoid compounds on differentiation of sebaceous gland in […] flank organ were generated.

hacyp26a = experiment: Taqman RT-PCR of CYP26A expression in hamster flank organ sebaceous gland; type: in vivo
Experimental: (§2) Because CYP26 functions in cells to reduce retinoic acid receptor signaling, the effect of inhibiting CYP26 to increase retinoic acid receptor signaling, and thereby reduce differentiation of hamster sebaceous gland differentiation, was examined. The expression of CYP26A and CYP26B in hamster flank organ sebaceous gland was determined using Taqman RT-PCR. Hamsters were treated as described above and sacrificed at various time points (1 day to 3 weeks). The flank organs were excised and placed under a dissecting microscope. Sebaceous glands were removed and put into liquid nitrogen immediately. RNAs were isolated from the glands using Trizol reagents (Invitrogen; San Diego, Calif.) as described by the manufacturer. The RNAs were treated with DNase to remove contaminating genomic DNAs and further purified with the DNA-free kit (Ambion; Austin, Tex.). Quantitative RT-PCR was performed on an ABI 7700 machine using Invitrogen's Platinum qRT-PCR kit with CYP26-specific primers and probes.

hacyp26b = experiment: Taqman RT-PCR of CYP26B expression in hamster flank organ sebaceous gland; type: in vivo
Experimental: as §2

RAR γ [3] = biological target: T1, RAR γ (Homo sapiens, UniProt P13631); experiment: RAR γ EC50/(efficacy); type: cell-based; settings: value in brackets of cell EC50/(EFFICACY)/Kd
T1 sequence (P13631 1-454): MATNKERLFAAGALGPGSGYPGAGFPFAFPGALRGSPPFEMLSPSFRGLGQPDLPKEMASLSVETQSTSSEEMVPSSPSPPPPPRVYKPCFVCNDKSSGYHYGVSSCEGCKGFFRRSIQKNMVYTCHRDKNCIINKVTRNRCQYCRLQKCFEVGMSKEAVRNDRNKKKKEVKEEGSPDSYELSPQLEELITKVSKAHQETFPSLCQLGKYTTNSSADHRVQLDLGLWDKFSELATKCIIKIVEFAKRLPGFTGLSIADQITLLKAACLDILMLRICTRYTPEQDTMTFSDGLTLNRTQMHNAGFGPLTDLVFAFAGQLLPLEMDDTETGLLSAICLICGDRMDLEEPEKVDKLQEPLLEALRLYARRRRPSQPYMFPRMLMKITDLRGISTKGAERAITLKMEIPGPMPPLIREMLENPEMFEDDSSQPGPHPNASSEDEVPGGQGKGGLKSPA

RAR γ [4] = biological target: T1, RAR γ; experiment: RAR γ Kd; type: binding; settings: last item of cell EC50/(EFFICACY)/Kd
RAR β [5] = biological target: T2, RAR β (Homo sapiens, UniProt P10826); experiment: RAR β EC50/(efficacy); type: cell-based; settings: value in brackets of cell EC50/(EFFICACY)/Kd
T2 sequence (P10826 1-455): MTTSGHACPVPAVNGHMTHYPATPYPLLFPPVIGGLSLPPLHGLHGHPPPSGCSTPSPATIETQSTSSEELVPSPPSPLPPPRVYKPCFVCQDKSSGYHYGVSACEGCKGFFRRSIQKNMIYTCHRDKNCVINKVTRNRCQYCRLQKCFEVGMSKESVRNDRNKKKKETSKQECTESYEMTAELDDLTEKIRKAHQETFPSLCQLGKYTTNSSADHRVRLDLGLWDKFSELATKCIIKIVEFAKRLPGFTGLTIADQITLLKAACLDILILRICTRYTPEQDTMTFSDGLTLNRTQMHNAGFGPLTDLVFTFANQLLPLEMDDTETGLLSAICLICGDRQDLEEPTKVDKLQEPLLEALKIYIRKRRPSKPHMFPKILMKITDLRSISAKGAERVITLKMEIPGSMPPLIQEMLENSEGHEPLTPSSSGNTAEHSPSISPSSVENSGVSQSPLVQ

CYP26B (P450RAI-2) = biological target: T3, CYP26B (P450RAI-2) (Homo sapiens, UniProt Q9NR63); experiment: Cell-based inhibition of RA metabolism in CYP26B stably transfected HeLa cells; settings: stably transfected HeLa cells, [3H]-RA, 3 hours at 37° C.; read-out: P450RAI-2 Whole cell IC50
T3 construct: expressed in transfected cells; host or cells: HeLa
T3 sequence (Q9NR63 1-512): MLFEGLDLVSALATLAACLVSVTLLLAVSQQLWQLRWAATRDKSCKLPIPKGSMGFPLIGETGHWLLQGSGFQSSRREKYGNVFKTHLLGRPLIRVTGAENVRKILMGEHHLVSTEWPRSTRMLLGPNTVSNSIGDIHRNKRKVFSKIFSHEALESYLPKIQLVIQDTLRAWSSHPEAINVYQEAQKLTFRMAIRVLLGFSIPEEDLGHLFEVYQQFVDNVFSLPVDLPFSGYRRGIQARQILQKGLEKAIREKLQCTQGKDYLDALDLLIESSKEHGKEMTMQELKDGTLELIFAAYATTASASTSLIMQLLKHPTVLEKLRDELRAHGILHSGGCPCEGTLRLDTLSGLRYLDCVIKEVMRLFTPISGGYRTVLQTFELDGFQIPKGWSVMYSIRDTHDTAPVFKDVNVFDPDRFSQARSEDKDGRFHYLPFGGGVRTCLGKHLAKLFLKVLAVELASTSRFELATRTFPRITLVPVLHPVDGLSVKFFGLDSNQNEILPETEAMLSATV
Procedure, shortened: (§3)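 Stably transfected HeLa cells (5×10^5/well) in MEM with 10% FBS and 0.05 μCi [3H]-RA, compounds at 10, 1 or 0.1 μM final, 3 h at 37° C. Retinoids extracted by modified Bligh-Dyer (methylene chloride); aqueous radioactivity counted; ID50 for 50% inhibition of RA metabolism derived from log-transformed data.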

RAR β [6] = biological target: T2, RAR β; experiment: RAR β Kd; type: binding; settings: last item of cell EC50/(EFFICACY)/Kd
RAR α [7] = biological target: T4, RAR α (Homo sapiens, UniProt P10276); experiment: RAR α Kd; type: binding; settings: last item of cell EC50/(EFFICACY)/Kd
T4 sequence (P10276 1-462): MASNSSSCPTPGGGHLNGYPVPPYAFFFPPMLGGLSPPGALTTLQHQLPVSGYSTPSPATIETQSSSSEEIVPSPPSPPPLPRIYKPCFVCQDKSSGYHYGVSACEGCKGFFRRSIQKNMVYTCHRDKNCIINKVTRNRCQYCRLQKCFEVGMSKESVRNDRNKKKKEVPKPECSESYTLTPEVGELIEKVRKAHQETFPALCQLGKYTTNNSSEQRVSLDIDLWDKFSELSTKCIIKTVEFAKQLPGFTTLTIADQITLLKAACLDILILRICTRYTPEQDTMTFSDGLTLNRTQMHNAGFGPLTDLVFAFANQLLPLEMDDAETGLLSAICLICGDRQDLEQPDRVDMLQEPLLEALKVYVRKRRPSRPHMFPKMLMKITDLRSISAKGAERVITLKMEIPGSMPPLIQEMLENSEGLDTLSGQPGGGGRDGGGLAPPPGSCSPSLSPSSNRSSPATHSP

CYP26A (P450RAI-1) = biological target: T5, CYP26A (P450RAI-1) (Homo sapiens, UniProt O43174); experiment: Cell-based inhibition of RA metabolism in CYP26A stably transfected HeLa cells; settings: stably transfected HeLa cells, [3H]-RA, 3 hours at 37° C.; read-out: P450RAI-1 Whole cell IC50
T5 construct: expressed in transfected cells; host or cells: HeLa
T5 sequence (O43174 1-497): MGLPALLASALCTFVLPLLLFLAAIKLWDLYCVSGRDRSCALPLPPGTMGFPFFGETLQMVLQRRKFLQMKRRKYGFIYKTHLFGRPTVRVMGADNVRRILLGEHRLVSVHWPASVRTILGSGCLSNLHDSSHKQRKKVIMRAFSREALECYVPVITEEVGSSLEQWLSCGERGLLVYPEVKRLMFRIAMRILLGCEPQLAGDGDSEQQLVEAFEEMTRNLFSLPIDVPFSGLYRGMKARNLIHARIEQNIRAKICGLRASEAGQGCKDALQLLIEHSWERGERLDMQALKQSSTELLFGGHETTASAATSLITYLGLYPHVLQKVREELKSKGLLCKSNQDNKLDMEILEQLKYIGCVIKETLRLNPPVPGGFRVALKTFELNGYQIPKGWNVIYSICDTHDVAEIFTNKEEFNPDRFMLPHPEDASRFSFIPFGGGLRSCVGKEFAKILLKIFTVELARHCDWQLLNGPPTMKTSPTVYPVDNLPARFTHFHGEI
Procedure, shortened: as §3

RAR α [8] = biological target: T4, RAR α; experiment: RAR α EC50/(efficacy); type: cell-based; settings: value in brackets of cell EC50/(EFFICACY)/Kd

**Q.** Which “effect of treatment in human patients” value (human patients) does the source give for `Clc1cccc(C(c2ccc3[nH]cnc3c2)n2ccnc2)c1` (stereo not shown) [liarozole] here?
**A.** amelioration of psoriasis

**Q.** What does the source list for `CC1=C(/C=C/C(C)=C\C=C\C(C)=C/C(=O)O)C(C)(C)CCC1=O` [4-oxo-13-cis RA]?
**A.** sebaceous gland differentiation in hamster flank organ [1]: appeared to be more effective; toxicity ([2]; hamster flank organ study): lower toxicity levels

**Q.** With `C/C(=C\c1ccc(C(=O)O)cc1)c1ccc2c(c1)C(C)(C)CCC2(C)C` [TTNPB] as the compound, how does the toxicity ([2]; hamster, in vivo) read?
**A.** observed at effective doses

**Q.** With `CC1=C(/C=C/C(C)=C/C=C/C(C)=C\C(=O)O)C(C)(C)CCC1` [13-cis retinoic acid] as the compound, how does the “sebaceous gland differentiation in hamster flank organ” value [1] read?
**A.** effective in reducing sebaceous gland differentiation; also recorded: appeared to be more effective

**Q.** And the “hacyp26a Ct” value (hacyp26a; HFO-9, 1w, listed as 13cisRA)?
**A.** 29.8 and 29.6

**Q.** What about the “hacyp26a Relative to Veh” value (hacyp26a; HFO-9, 1w, listed as 13cisRA) of the same compound?
**A.** 12.1× and 13.9×

**Q.** And the “hacyp26a Ct” value (hacyp26a; HFO-9, 2w)?
**A.** 30.1

**Q.** What about the “hacyp26a Relative to Veh” value (hacyp26a; HFO-9, 2w) of the same compound?
**A.** 9.8×

**Q.** And the “hacyp26a Ct” value (hacyp26a; HFO-9, 3w, listed as 13cisRA)?
**A.** 33 and 31.9

**Q.** What about the “hacyp26a Ct” value (hacyp26a; HFO-9, 4d) of the same compound?
**A.** 28.1

**Q.** And the “hacyp26a Relative to Veh” value (hacyp26a; HFO-9, 4d)?
**A.** 22.6×

**Q.** And the “CYP26A expression in hamster flank sebaceous gland” value (hacyp26a; Table 2)?
**A.** induced

**Q.** And the toxicity ([2]; hamster, in vivo)?
**A.** lower toxicity levels

**Q.** And the “hacyp26b Ct” value (hacyp26b; HFO-9, 1w, listed as 13cisRA)?
**A.** 30.5 and 31.8

**Q.** What about the “hacyp26b Ct” value (hacyp26b; HFO-9, 2w) of the same compound?
**A.** 34.1

**Q.** What about the “hacyp26b Relative to veh” value (hacyp26b; HFO-9, 2w) of the same compound?
**A.** 0.6×

**Q.** And the “hacyp26b Ct” value (hacyp26b; HFO-9, 3w, listed as 13cisRA)?
**A.** 36.7 and 35.7

**Q.** What about the “hacyp26b Relative to veh” value (hacyp26b; HFO-9, 3w, listed as 13cisRA) of the same compound?
**A.** 0.1× and 0.2×

**Q.** And the “hacyp26b Ct” value (hacyp26b; HFO-9, 4d)?
**A.** 30.6

**Q.** And the “hacyp26b Relative to veh” value (hacyp26b; HFO-9, 4d)?
**A.** 13×

**Q.** What about the “CYP26B expression in hamster flank sebaceous gland” value (hacyp26b; Table 2) of the same compound?
**A.** induced

**Q.** For `CCc1ccc(C2=CC(C)(C)Sc3ccc(C#Cc4ccc(C(=O)O)cc4)cc32)cc1` [AGN194310], which “effect on the 13-cis retinoic acid-induced reduction in sebaceous gland differentiation” value ([1]; given with 13-cis retinoic acid, FIG. 2) is on record?
**A.** blocked the effect of 13-cis retinoic acid treatment on sebaceous gland differentiation

**Q.** What does the source list for `CN(c1cccc(C#Cc2ccc(/C=C/C(=O)O)cc2)c1)C1CC1` [Compound 37, (E)-3-{4-[3-(Cyclopropyl-methyl-amino)-phenylethynyl]-phenyl}-acrylic acid]?
**A.** RAR γ (EFFICACY) (RAR γ [3]): 15; Kd (RAR γ [4]): > 10 µM; RAR β (EFFICACY) (RAR β [5]): 70; IC50 (CYP26B (P450RAI-2)): 0.5 µM; Kd (RAR β [6]): 7.02 µM; Kd (RAR α [7]): > 10 µM; IC50 (CYP26A (P450RAI-1)): > 10 µM; RAR α (EFFICACY) (RAR α [8]): 10
